Measurements reported in patent US9089129B2, “Non-aerosol foaming alcohol hand sanitizer” (AMERICAN STERILIZER COMPANY, priority 2011, dated 2015).

Legend:
[1] = Foam quality and stability screen in 70% w/w ethanol solution; assay type: physicochemical; set-up: key: Poor: little to no foam generated; Moderate: some foam generated, and/or foam generated collapsed rapidly; Good: large amount of foam was generated and foam was stable (did not collapse rapidly); settings: approximately one gram of component in 15 grams of 70% w/w ethanol solution (aqueous), shaken by hand for 15 seconds
Experimental: A number of different components were screened to evaluate their ability to create a stable foam in a 70% w/w ethanol solution (aqueous). For this evaluation, approximately one gram of each component was added to 15 grams of the ethanol solution in a vial.

Serratia marcescens = experiment: Pigskin model, 1 and 5 inoculation/treatment cycles; settings: FIG. 4
Experimental: Each sample was evaluated at two different inoculation/treatment cycles, i.e., at 1 inoculation/treatment and 5 inoculations/treatments. Tests were completed using the pigskin model, the inoculant, Serratia marcescens, and 1 and 5 inoculation/treatment cycles. The “pigskin model” is a method designed to simulate a HCPHW test using pigskins prepared according to the method described in U.S. Pat. No. 7,985,773 to […] et al., incorporated herein by reference. In this example, pigskin pairs were inoculated with bacteria, rubbed together for 15 seconds, and allowed to air dry for 1 minute. The two different ethanol solutions having concentrations of 62% w/w and 70% w/w and two different product formulations N and O, one having 62% w/w ethanol (N) and the other having 70% w/w ethanol (O), were applied to pairs of pigskins (0.2 ml per pair/0.1 ml per piece). The pairs of pigskins (having the same treatment) were rubbed together for 30 seconds and allowed to air dry for 4 minutes. Neutralizer was then applied to the pigskins, they were debrided for 30 seconds, serially diluted and plated.

In the case of Lauramine Oxide, the “Foam Profile” value [1] is reported as “Poor”.

For Quaternium-26, the “Foam Profile” value [1] was “Poor”.

For Isostearamidopropyl Morpholine Lactate, the “Foam Profile” value [1] was “Poor”.

In the case of CCCCCCCCCC[N+](C)(C)CCCCCCCCCC.[Cl-] [Didecyl dimethyl ammonium chloride], the “Foam Profile” value [1] is reported as “Poor”.

For CCCCCCCCCCCC(=O)OC(C)C(=O)OC(C)C(=O)[O-].[Na+] (centres unmarked) [Sodium Lauroyl Lactylate], the “Foam Profile” value [1] was “Poor”.

For Glycereth-7 Cocoate, the “Foam Profile” value [1] was “Poor”.

With CO[C@H]1CO[C@H]2[C@@H]1OC[C@H]2OC [Dimethyl Isosorbide] the “Foam Profile” value [1] was “Poor”.

For CCCCCCCCCCCCCC(=O)NCCC[N+](C)(C)CC(O)CO.[Cl-] (centres unmarked) [Myristamidopropyl PG-dimonium chloride], the “Foam Profile” value [1] was “Poor”.

With CCO [ethanol] the log reduction (Serratia marcescens; 1 inoculation/treatment cycle) was “did provide efficacy” and the log reduction (Serratia marcescens; 5 inoculation/treatment cycles) was “efficacy decreased”.

For “Cocamidopropyl PG-Dimonium Chloride Phosphate”, the “Foam Profile” value [1] was “Poor”.

With CCCCCCCC/C=C\CCCCCCCC[N+](C)(C)Cc1ccccc1.[Cl-] [Olealkonium chloride] the “Foam Profile” value [1] was “Poor”.

With Alkyl Glucoside the “Foam Profile” value [1] was “Poor”.

With PPG-15 Stearyl Ether the “Foam Profile” value [1] was “Poor”.

In the case of Quaternium-92, the “Foam Profile” value [1] is reported as “Poor”.

With POE-2 Coco Amine the “Foam Profile” value [1] was “Poor”.

With CCCCCCCCCCCCCCCCCCCCCC[N+](C)(C)C.COS(=O)(=O)[O-] [Behentrimonium Methosulfate] the “Foam Profile” value [1] was “Poor”.

With CC(O)C(=O)O.CCCCCCCCCCCCCCCCCC(=O)NCCCN(C)C [Stearamidopropyl dimethylamine lactate] the “Foam Profile” value [1] was “Poor”.

With Glycereth-18 Ethylhexanoate the “Foam Profile” value [1] was “Moderate”.

For OCC(O)CO [Glycerin], the “Foam Profile” value [1] was “Poor”.
